Experiments:
[1] = target: T1, RARβ (Homo sapiens, UniProt P10826); assay: Ligand Binding Assay, RARβ
T1 sequence (P10826 1-448 isoform P10826-2): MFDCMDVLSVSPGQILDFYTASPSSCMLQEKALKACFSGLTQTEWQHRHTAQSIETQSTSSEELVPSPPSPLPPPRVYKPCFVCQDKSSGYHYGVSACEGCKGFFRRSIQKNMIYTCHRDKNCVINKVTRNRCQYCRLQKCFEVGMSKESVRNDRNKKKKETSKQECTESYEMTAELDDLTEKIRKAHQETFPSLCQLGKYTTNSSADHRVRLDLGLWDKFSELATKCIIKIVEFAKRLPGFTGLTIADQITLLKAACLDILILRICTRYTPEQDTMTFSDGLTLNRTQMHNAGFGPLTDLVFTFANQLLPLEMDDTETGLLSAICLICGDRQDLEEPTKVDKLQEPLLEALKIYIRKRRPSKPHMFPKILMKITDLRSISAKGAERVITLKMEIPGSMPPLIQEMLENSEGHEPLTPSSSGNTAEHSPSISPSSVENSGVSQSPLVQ
Source text: (§1) Other assays described below, measure the ability of the compounds of the present invention to bind to, and/or activate various retinoid receptor subtypes. When in these assays a compound binds to a given receptor subtype and activates the transcription of a reporter gene through that subtype, then the compound is considered an agonist of that receptor subtype. […] In the below descried assays the ability of the compounds to bind to RARα, RARβ, RARγ, RXRα, RXRβ and RXRγ receptors, and the ability or inability of the compounds to activate transcription of a reporter gene through these receptor subtypes can be tested.
(§2) A holoreceptor transactivation assay and a ligand binding assay which measure the antagonist/agonist like activity of the compounds of the invention, or their ability to bind to the several retinoid receptor subtypes, respectively, are described in published PCT Application No. WO WO93/11755 (particularly on pages 30-33 and 37-41) published on Jun. 24, 1993, the specification of which is also incorporated herein by reference. A description of the holoreceptor transactivation assay is also provided below.
(§3) CV1 cells (5,000 cells/well) were transfected with an RAR reporter plasmid MTV-TREp-LUC (50 ng) along with one of the RAR expression vectors (10 ng) in an automated 96-well format by the calcium phosphate procedure of Heyman et al. Cell 68, 397-406, (1992). For RXRα and RXRγ transactivation assays, an RXR-responsive reporter plasmid CRBPII-tk-LUC (50 ng) along with the appropriate RXR expression vectors (10 ng) was used substantially as described by Heyman et al. above, and Allegretto et al. J. Biol. Chem. 268, 26625-26633. For RXRβ transactivation assays, an RXR-responsive reporter plasmid CPRE-tk-LUC ([…]) along with RXRβ expression vector ([…]) was used as described in above. These reporters contain DRI elements from human CRBPII and certain DRI elements from promoter, respectively. (see Mangelsdorf et al. The Retinoids: Biology, Chemistry and Medicine, pp 319-349, Raven Press Ltd., New York and Heyman et al., cited above) (1, 8). A β-galactosidase (50 ng) expression vector was used as an internal control in the transfections to normalize for variations in transfection efficiency. The cells were transfected in triplicate for 6 hours, followed by incubation with retinoids for 36 hours, and the extracts were assayed for luciferase and β-galactosidase activities. The detailed experimental procedure for holoreceptor transactivations has been described in Heyman et al. above, and Allegretto et al. cited above. The results obtained in this assay are expressed in EC50 numbers, as they are also in the chimeric receptor transactivation assay. The Heyman et al. Cell 68, 397-406, Allegretto et al. J. Biol. Chem. 268, 26625-26633, and Mangelsdorf et al. The Retinoids: Biology, Chemistry and Medicine, pp 319-349, Raven Press Ltd., New York, are expressly incorporated herein by reference. The results of ligand binding assay are expressed in Kd numbers. (See Cheng et al. Biochemical Pharmacology Vol. 22 pp 3099-3108, expressly incorporated herein by reference.)

[2] = target: T2, RARα (Homo sapiens, UniProt P10276); assay: Ligand Binding Assay, RARα
T2 sequence (P10276 1-462): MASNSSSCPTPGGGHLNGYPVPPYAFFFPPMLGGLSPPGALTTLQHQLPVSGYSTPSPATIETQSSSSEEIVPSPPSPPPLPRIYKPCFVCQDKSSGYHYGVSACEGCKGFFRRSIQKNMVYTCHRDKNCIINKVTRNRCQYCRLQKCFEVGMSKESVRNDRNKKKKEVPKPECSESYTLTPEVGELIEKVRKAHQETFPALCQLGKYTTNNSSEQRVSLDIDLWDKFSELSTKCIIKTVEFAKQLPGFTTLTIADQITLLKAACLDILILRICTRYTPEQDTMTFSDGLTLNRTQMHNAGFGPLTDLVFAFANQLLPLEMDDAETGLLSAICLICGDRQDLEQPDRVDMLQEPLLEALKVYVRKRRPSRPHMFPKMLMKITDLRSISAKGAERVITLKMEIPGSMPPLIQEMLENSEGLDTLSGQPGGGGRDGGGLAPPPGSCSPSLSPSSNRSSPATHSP
Source text: as §1, §2, §3

[3] = system: RARγ-VP-16 chimeric receptor; assay: Retinoid inverse agonist assay: inhibition of basal luciferase activity in CV-1 cells cotransfected with RARγ-VP-16, ER-RXRα and ERE-tk-Luc; assay type: cell-based; details: RARγ-VP-16, ER-RXRα chimeric receptor, ERE-tk-Luc reporter, read-out: IC50 (inhibition of basal luciferase activity, inverse agonism)
Source text: The activity of retinoid inverse agonists can be tested by the procedure of Klein et al. J. Biol. Chem. 271, 22692-22696 (1996) which is expressly incorporated herein by reference.
In this assay, retinoid inverse agonists are able to repress the basal activity of a RARγ-VP-16 chimeric receptor where the constituitively active domain of the herpes simplex virus (HSV) VP-16 is fused to the N-terminus of RARγ. CV-1 cells are cotransfected with RARγ-VP-16, an ER-RXRα chimeric receptor and an ERE-tk-Luc chimeric reporter gene to produce a basal level of luciferase activity, as shown by Nagpal et al. EMBO J. 12, 2349-2360 […] expressly incorporated herein by reference. Retinoid inverse agonists are able to inhibit the basal luciferase activity in these cells in a dose dependent manner and IC50 s measured.

[4] = target: T3, RARγ (Homo sapiens, UniProt P13631); assay: Ligand Binding Assay, RARγ
T3 sequence (P13631 1-454): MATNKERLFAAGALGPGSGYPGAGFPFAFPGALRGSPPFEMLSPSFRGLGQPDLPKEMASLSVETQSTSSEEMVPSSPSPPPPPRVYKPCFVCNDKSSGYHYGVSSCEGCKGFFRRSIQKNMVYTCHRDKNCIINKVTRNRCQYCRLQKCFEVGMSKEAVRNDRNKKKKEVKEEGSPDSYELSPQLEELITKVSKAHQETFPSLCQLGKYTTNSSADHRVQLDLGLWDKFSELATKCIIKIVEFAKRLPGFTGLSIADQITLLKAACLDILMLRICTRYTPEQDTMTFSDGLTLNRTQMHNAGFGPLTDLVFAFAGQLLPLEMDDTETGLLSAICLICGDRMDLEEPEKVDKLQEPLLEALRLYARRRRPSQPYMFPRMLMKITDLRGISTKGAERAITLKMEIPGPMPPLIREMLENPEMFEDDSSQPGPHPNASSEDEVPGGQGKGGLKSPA
Source text: as §1, §2, §3

| Kd [1] [nM] | Kd [2] [nM] | IC50 [3] [nM] | Kd [4] [nM] | SMILES |
| --- | --- | --- | --- | --- |
| 3 | 13 | 1 | 9 | Cc1ccc(N2CCC(C)(C)c3ccc(C#Cc4ccc(C(=O)O)cc4)cc32)cc1 [Compound 5, 4-(2-(4,4-Dimethyl-1,2,3,4-tetrahydro-N-(4-methylphenyl)quinolin-7-yl)ethynyl)benzoic Acid] |
| 18 | 147 | – | 52 | CC1(C)CCN(c2ccccc2)c2cc(C#Cc3ccc(C(=O)O)cc3)ccc21 [Compound 10, 4-(2-(4,4-Dimethyl-1,2,3,4-tetrahydro-N-phenylquinolin-7-yl)ethynyl)benzoicAcid] |
| 84 | 101 | – | 530 | Cc1ccc(N2CCC(C)(C)c3ccc(C#Cc4ccc(C(=O)O)c(F)c4)cc32)cc1 [Compound 12, 4-(2-(4,4-Dimethyl-1,2,3,4-tetrahydro-N-(4-methylphenyl)quinolin-7-yl)ethynyl)-2-fluorobenzoic Acid] |
| 5 | 11 | – | 15 | Cc1ccc(N2CCC(C)(C)c3ccc(/C=C/c4ccc(C(=O)O)cc4)cc32)cc1 [Compound 14, (E)-4-(2-(4,4-dimethyl-1,2,3,4-tetrahydro-N-(4-methylphenyl)quinolin-7-yl)ethenyl)benzoic acid] |
| 17 | 59 | – | 32 | Cc1ccc(N2C(=O)CC(C)(C)c3ccc(C#Cc4ccc(C(=O)O)cc4)cc32)cc1 [Compound 22, 4-(2-(4,4-Dimethyl-3,4-dihydro-N-(4-methylphenyl)-2(1H)-quinolinon-7-yl)ethynyl)benzoic Acid] |
| > 1000 | 27 | – | > 1000 | Cc1ccc(N2CCC(C)(C)c3ccc(C(=O)Nc4ccc(C(=O)O)cc4)cc32)cc1 [Compound 25, (4,4-dimethyl-1,2,3,4-tetrahydro-N-(4-methylphenyl)quinolin-7-carboxyl)-4-carboxyanilide] |
